Reference: patent US11980616B2, “Treating liver disease by selectively eliminating senescent cells” (Buck Institute for Research on Aging, priority 2014, dated 2024)

What was measured:
[1] = test system: senescent lung fibroblasts (Sen(IR)IMR90); assay: Cell count survival assay, irradiation-induced senescent IMR90; assay type: cell-based, human; conditions: 0, 2.5, 10 μM for 9 days
Description: (§1) Foreskin fibroblast cell lines HCA2 and BJ, lung fibroblast cell line IMR90, and mouse embryonic fibroblasts were seeded in six-well plates and induced to senesce with 10 Gy of ionizing radiation (IR) or a 24 hr treatment with doxorubicin (Doxo). Senescent phenotype was allowed to develop for at least 7 days, at which point a cell count was made to determine the baseline number of cells. Nutlin-3a treatment was then initiated for a period of at least 9 days. Media alone or media with drug as appropriate was refreshed at least every three days. At the end of the assay time period, cells are counted. Each condition was seeded in three plate wells and counted independently. Initial cell count serves as a control to determine the induction of senescence, as compared to the last day count without nutlin treatment. Initial non-senescent cell count serves as a proxy to determine Nutlin-3a toxicity.
Foreskin fibroblast cell lines HCA2 and BJ, lung fibroblast cell line IMR90, and mouse embryonic fibroblasts were exposed to 10 Gy of ionizing radiation (IR) to induce senescence. […] Percent survival was calculated as [cell count on day 9 of Nutlin-3a treatment/initial cell count on first day of Nutlin-3a treatment].

[2] = test system: doxorubicin-treated (Doxo) senescent foreskin fibroblasts (HCA2); assay: Cell count survival assay, doxorubicin-induced senescent HCA2; assay type: cell-based; conditions: Sen(Doxo) HCA2; 9 days
Description: as §1
Foreskin fibroblasts (HCA2) and aortic endothelial cells (Endo Aort) were treated with doxorubicin (250 nM) for one day (24 hours) to induce senescence (see FIG. 1). Eight days following doxorubicin treatment, Nutlin-3a treatment was initiated. HCA2 cells were exposed to Nutlin-3a for 9 days, and aortic endothelial cells were exposed to Nutlin-3a for 11 days. […] Percent survival was calculated as [cell count on the last day of Nutlin-3a treatment/initial cell count on first day of Nutlin-3a treatment].

[3] = test system: non-senescent lung fibroblasts (Non Sen IMR90); assay: Cell count toxicity assay, non-senescent IMR90; assay type: cell-based, human; conditions: 0, 2.5, 10 μM, 9 days
Description: as §1
Non-senescent foreskin fibroblasts (HCA2), lung fibroblasts (IMR90), and mouse embryonic fibroblasts (MEF) were treated with varying concentrations (0, 2.5 μM, and 10 μM) of Nutlin-3a for a period of 9 days to assess Nutlin-3a toxicity. Cell counts were taken at the start (NS start) and end of Nutlin-3a treatment. The difference between counts of cells not treated with Nutlin-3a on day 9 (NS 0) and cell counts determined at day zero (NS start) reflects the cell growth over the indicated time period. […]

[4] = test system: senescence markers and SASP factors in senescent IMR90 cells; assay: qPCR of senescence markers and SASP factors in irradiated senescent IMR90 cells; assay type: cell-based, human
Description: Primary human fibroblast (IMR90) cells were induced to senesce by applying 10 Gy of irradiation. Seven days after irradiation (Day 0), cells were treated with 10 μM Nutlin-3a or vehicle (DMSO) for nine days (Day 9). The drug or vehicle was refreshed every three days. Drug/vehicle was removed at Day 9 and the cells were cultured for an additional three days (Day 12) in media without drug or DMSO. Cells were then collected, mRNA extracted, and cDNA prepared. Quantitative PCR (qPCR) was then performed to detect expression of various genes. Cells were also collected at Day 12 after drug/vehicle had been removed for three days. The data are presented as an average of three samples. Data were normalized to actin and depicted as a ratio to non-senescent cells.

[5] = test system: p16-3MR mice fed a high fat diet; assay: Glucose tolerance and insulin sensitivity in p16-3MR mice fed a high fat diet; assay type: in vivo, mouse
Description: Groups of p16-3MR mice (n=9) were fed a high fat diet for four months mice or a regular chow diet. Animals were then treated with ganciclovir (3 rounds of 25 mg/kg ganciclovir administered daily for five consecutive days) or vehicle. A glucose bolus was given at time zero, and blood glucose was monitored at 20, 30, 60, and 120 minutes after delivering glucose to determine glucose disposal (see FIG. 69A). […] Insulin sensitivity was also determined (Insulin Tolerance Testing (ITT)). […] Changes in weight, body composition, and food intake were also monitored.

[6] = test system: LDLR-/-/3MR double transgenic mice; assay: Mature atherosclerotic plaques in LDLR-/-/3MR mice, 100 day treatment period; assay type: in vivo, mouse; conditions: vs LDLR-/- control
Description: The impact of clearance of senescent cells on the stability and size of mature atherosclerotic plaques was studied in LDLR^−/−/3MR double transgenic mice. From 10 weeks of age, LDLR^−/−/3MR double transgenic mice (10 weeks) and LDLR^−/− single transgenic mice (control) were fed a high fat diet (Harlan Teklad TD.88137) having 42% calories from fat beginning at Week 0 until Week 12.5, when the mice were switched to normal chow diet. Both groups of mice were treated with ganciclovir from week 12.5 over the next 100 days, with each treatment cycle comprising 5 days of ganciclovir (25 mg/kg intraperitoneally daily) and 14 days off. At the end of the 100 day treatment period, the mice were sacrificed, plasma and tissues were collected, and atherosclerosis was quantitated. Descending aortas were dissected and stained with Sudan IV to visualize the plaque lipids. […] Plaques from ganciclovir-treated LDLR^−/− control and LDLR^−/−/3MR mice (see dashed circled plaques in FIGS. 55A-B, respectively) were harvested and cut into cross-sections and stained with […] the general architecture of the atherosclerotic plaques. “#” indicates fat located on the outside of the aorta (see FIG. 55A). The plaques marked with an “*” and “**” in FIGS. 55A and B, respectively, are shown as stained cross-sections in FIGS. […], respectively. […] The plaque from the control mice has identifiable “lipid pockets” accumulating within. […] Disruption or tear in the cap of a lipid-rich plaque is a trigger for coronary events through exposure of plaque thrombogenic components to platelets and clotting components of the blood. Plaques that grow more rapidly as a result of rapid lipid deposition and have thin fibrin caps are prone to rupture. Slowly growing plaques with mature fibrin caps tend to stabilize and are not prone to rupture. Taken together, these experiments indicate that removal of senescent cells may affect atherosclerotic plaque architecture and have a stabilizing effect.

[7] = 10 μM, drug present and after removal
[8] = Day 12, three days after drug removal
[9] = 3 rounds of 25 mg/kg daily for five days, vs vehicle

| Structure (SMILES) | Percent survival [1] | Percent survival [2] | Proliferation (percent growth) [3] | Toxicity (cell number vs starting level) [3] | p21 level relative to non-senescent cells ([4]; 10 μM, Day 9, qPCR normalized to actin) | IL-1α level ([4]; 10 μM, Day 9 and Day 12) | CXCL-1 level [4, 7] | IL-6 level [4, 7] | IL-8 level [4, 7] | p16 level [4, 8] | p21 level vs DMSO treated cells [4, 8] | p16 level ([4]; in the presence of drug (Day 9)) | Insulin Tolerance Testing: blood glucose ([5]; 0, 14, 30, 60, and 120 minutes) | Glucose tolerance test AUC [5, 9] | Hemoglobin A1c [5, 9] | Atherosclerotic plaques in descending aorta (Sudan IV staining) ([6]; 25 mg/kg i.p. 5 days on, 14 days off, 100 days) | % of the aorta covered in plaques (area of Sudan IV staining) ([6]; 100 day treatment) | Plaque morphology (cross-sections) ([6]; 100 day treatment) |
| --- | --- | --- | --- | --- | --- | --- | --- | --- | --- | --- | --- | --- | --- | --- | --- | --- | --- | --- |
| COc1ccc(C2=N[C@@H](c3ccc(Cl)cc3)[C@@H](c3ccc(Cl)cc3)N2C(=O)N2CCNC(=O)C2)c(OC(C)C)c1 [Nutlin-3a] | reduced cell survival | sensitive | reduces proliferation | non-toxic | approximately 90 fold | decreased only after Nutlin-3a had been removed | reduced | reduced | reduced | decrease | comparable | did not change | – | – | – | – | – | – |
| Nc1nc(O)c2ncn(COC(CO)CO)c2n1 [ganciclovir] | – | – | – | – | – | – | – | – | – | – | – | – | greater decrease in blood glucose | significantly lower | lower | fewer atherosclerotic plaques with less intense staining | significantly lower | presence of a thick fibrin cap and the absence of lipid pockets |
